Source: patent publication US20090270401A1, “USE OF A DIHYDROIMIDAZOPYRAZOINE DERIVATIVE FOR TREATING OR PREVENTING PAIN” (Societe de Conseils de Recherches et D'Applications …, priority 2004, published 2009)

Assays:
Format in all cases: in vivo
[1] = tested on: neuropathy induced by administration of an anti-cancer agent (paclitaxel (taxol)), on a rat's paw; test: Model of neuropathy induced by administration of an anti-cancer agent (paclitaxel), Randall-Selitto test; conditions: significantly increased
Experimental: The activity of compound (I) or its salt according to the invention was evaluated in vivo on a model of neuropathy induced by administration of an anti-cancer agent (paclitaxel (taxol)), on a rat's paw.
Male Sprague Dawley (Charles River) rats weighing approximately 200 g are housed for 6 days under animal room conditions. 3 groups are constituted by at least 10 animals.
The neuropathy is induced by intra-peritoneal injections (i.p.) of 2 mg/kg of paclitaxel (extract of Taxus Yannanensis) on days D0, D2, D4 and D7.
Before the first injection, the rats are numbered and weighed and nociception is evaluated after a mechanical stimulus of increasing pressure: induction of an initial pressure (210 g/m^2) on the rats' two rear paws carried out using an analgesy meter according to the Randall and Selitto method. These measurements allow the base values to be defined before development of the neuropathy (D0). […]
On the day of the experiment, the rats are weighed, nociception is measured and the animals which have not developed the neuropathy on this day (reduction of nociception in comparison with the readings on D0) are excluded from the study. The product being tested is administered and nociception is measured at different times after its administration.

[2] = tested on: neuropathy induced by chronic constriction injury on the rat's paw; test: Model of neuropathy induced by sciatic nerve lesion (chronic constriction injury), Randall-Selitto test
Experimental: The activity of compound (I) or its salt according to the invention was evaluated in vivo on a model of neuropathy induced by chronic constriction injury on the rat's paw.
Male Sprague Dawley (Charles River) rats weighing approximately 200 g are housed for 6 days under animal room conditions. Before the start of the experiment (day zero) the pain threshold (or nociceptive threshold) was evaluated by measuring the withdrawal of the rat's paw caused by a mechanical stimulus (initial pressure 210 g/mm^2) applied using an analgesy meter (Randall-Selitto test). This threshold is the pain base threshold. Then, also on day zero, the rats are rendered neuropathic by chronic constriction injury according to the Bennett and Xies (1988) method: 4 ligatures spaced at approximately 2 mm (monocryl suture; 5.0) are carried out on the sciatic nerve of the rat's right paw, above the trifurcation. This operation is carried out under general anaesthetic using isoflurane. […] On day 14 after the operation, the pain threshold was re-evaluated. […] The readings are taken at the following times: 0.5 hours 2.5 hours and 4 hours after injection of compound (I). […]
(§1) This effectiveness is statistically determined by a variance analysis test (one route) and/or a Dunnett's test (two routes).
The effective dose (ED50) was determined. […]

[3] = tested on: carrageenin-induced inflammatory hyperalgesia in a rat's paw; test: Model of carrageenin-induced inflammatory hyperalgesia (Randall-Selitto test)
Experimental: The activity of compound (I) or its salt according to the invention has been evaluated in vivo on a model of carrageenin-induced inflammatory hyperalgesia in a rat's paw.
Male Sprague Dawley (Charles River) rats weighing approximately 200 g are housed for 5 to 8 days under animal room conditions and fasted on grids for 18 hours before and during the experiment. 4 groups are constituted by at least 6 animals. The products are administered by intravenous route (i.v., 1 ml/kg) 2 hours 30 minutes after the injection of carrageenin. Carrageenin at a concentration of 2 mg/0.1 ml was injected by sub-plantar route in the right rear paw of the rats (0.1 ml was injected per animal). The pain threshold (or nociceptive threshold) was evaluated by measuring the withdrawal of the rat's paw caused by a mechanical stimulus of increasing pressure (initial pressure 210 g/mm^2) applied using an analgesy meter (Randall-Selitto test). The measurements were taken just before the injection of carrageenin (t=−2 hours 30 minutes) and then at time 0.5 hours, 2 hours 30 minutes and 4 hours after injection of the products to be tested, which was carried out at t=0.
as §1
The effective dose (ED50) was determined. By ED50, is meant the dose which reduces by half the pain induced in the model tested.

[4] = Rattus norvegicus, iv, at time 0.5 hours, read-out: ED50 (dose which reduces by half the pain induced)

## N[C@@H](CSSC[C@H](N)C(=O)N1CCn2cc(-c3ccccc3)nc2[C@@H]1CC1CCCCC1)C(=O)N1CCn2cc(-c3ccccc3)nc2[C@@H]1CC1CCCCC1 [Compound (I), (1R)-1-[({(2R)-2-amino-3-[(8S)-8-(cyclohexylmethyl)-2-phenyl-5,6-dihydroimidazo[1,2-a]pyrazin-7(8H)-yl]-3-oxopropyl}dithio)methyl]-2-[(8S)-8-(cyclohexylmethyl)-2-phenyl-5,6-dihydroimidazo[1,2-a]pyrazin-7(8H)-yl]-2-oxoethylamine]
[1]; 3 mg/kg i.v., time 0.5 hours, paclitaxel alone 250 g/mm^2
  pain threshold following a mechanical stimulus applied on the rats' paws: approximately 370 g/mm^2
[1]; 100 mg/kg p.o., time 1 hour, paclitaxel alone 240 g/mm^2
  pain threshold following a mechanical stimulus applied to the rats' paws: approximately 400 g/mm^2
[2]; 3 mg/kg i.v., time 0.5 hours, day 14 after operation, control 200 g/mm^2, significantly increased
  pain threshold following a mechanical stimulus applied to the rats' paws: approximately 320 g/mm^2
[2]; [4]
  ED50: 2.5 mg/kg
[3]; 1 mg/kg i.v., time 0.5 hours, control 240 g/mm^2, significantly increased
  pain threshold following a mechanical stimulus applied to the rats' paws: approximately 400 g/mm^2
[3]; [4]
  ED50: 0.42 mg/kg
